One block for each molecule: values may come before it. The source made the active and inactive calls. The rule behind the calls is not given here.
Key:
BXPC-3 [1] = assay: Antiproliferative activity against human BXPC-3 cells assessed as inhibition of cell growth incubated for 72 hrs by WST-1 assay; type: functional, cell-based; settings: BXPC-3, 72 h
BXPC-3 [2] = assay: Induction of apoptosis in human BXPC-3 cells assessed as increase in lipid level at 10 uM incubated for 24 hrs by SRS microspectroscopic analysis; type: functional, cell-based
BXPC-3 [3] = assay: Induction of mitochodrial fission in human BXPC-3 cells assessed as reduction in mitochondrial length at 10 uM incubated for 24 hrs by MitoTracker Red CMX ROS staining based confocal microscopic analysis; type: functional, cell-based
BXPC-3 [4] = assay: Induction of apoptosis in human BXPC-3 cells assessed as increase in cleaved caspase 3 level at 10 uM incubated for 24 hrs by Western blot analysis; type: functional, cell-based
BXPC-3 [5] = assay: Induction of apoptosis in human BXPC-3 cells assessed as increase in cleaved PARP level at 10 uM incubated for 24 hrs by Western blot analysis; type: functional, cell-based
BXPC-3 [6] = assay: Antiproliferative activity against human BXPC-3 cells assessed as inhibition of cell growth incubated for 24 hrs by WST-1 assay; type: functional, cell-based; settings: BXPC-3, 24 h
BXPC-3 [7] = assay: Antiproliferative activity against human BXPC-3 cells assessed as inhibition of cell growth incubated for 48 hrs by WST-1 assay; type: functional, cell-based; settings: BXPC-3, 48 h
[8] = 1-octanol/PBS partition coefficient, logD of the compound at pH 7.4 by HPLC analysis; type: physicochemical
[9] = Downregulation of phosphorylated ERK protein expression in human BXPC-3 cells at 10 to 30 uM incubated for 24 hrs by Western blot analysis relative to control; type: functional; settings: dose 10-30 µM
BXPC-3 [10] = assay: Induction of apoptosis in human BXPC-3 cells assessed as decrease in number of anti-Ki67 cells at 30 uM incubated for 24 hrs by anti-Ki67 staining based confocal microscopic analysis; type: functional, cell-based
BXPC-3 [11] = assay: Induction of apoptosis in human BXPC-3 cells assessed as enlargement of cells at 30 uM incubated for 24 hrs by SRS microspectroscopic analysis; type: functional, cell-based
BXPC-3 [12] = assay: Induction of apoptosis in human BXPC-3 cells assessed as nuclear condensation at 30 uM incubated for 24 hrs by Hoechst staining based confocal microscopic analysis; type: functional, cell-based
BXPC-3 [13] = assay: Induction of apoptosis in human BXPC-3 cells assessed as increase in cleaved PARP level at 30 uM incubated for 24 hrs by Western blot analysis; type: functional, cell-based
[14] = Upregulation of phosphorylated p38 protein expression in human BXPC-3 cells at 10 to 30 uM incubated for 24 hrs by Western blot analysis relative to control; type: functional; settings: dose 10-30 µM
BXPC-3 [15] = assay: Induction of apoptosis in human BXPC-3 cells assessed as membrane blebbing at 30 uM incubated for 24 hrs by SRS microspectroscopic analysis; type: functional, cell-based
BXPC-3 [16] = assay: Induction of apoptosis in human BXPC-3 cells assessed as increase in number of dead cells at 30 uM incubated for 24 hrs by EthD-1 staining based fluorescence microscopic analysis relative to control; type: functional
BXPC-3 [17] = assay: Induction of apoptosis in human BXPC-3 cells assessed as porous appearance at 30 uM incubated for 24 hrs by SRS microspectroscopic analysis; type: functional, cell-based
BXPC-3 [18] = assay: Induction of apoptosis in human BXPC-3 cells assessed as increase in BAX/Bcl-2 mRNA expression ratio at 30 uM incubated for 24 hrs by RT-PCR analysis relative to control; type: functional
BXPC-3 [19] = assay: Induction of apoptosis in human BXPC-3 cells assessed as decrease in intensity of protein-associated SRS bands at 30 uM incubated for 24 hrs by SRS microspectroscopic analysis; type: functional, cell-based
BXPC-3 [20] = assay: Induction of apoptosis in human BXPC-3 cells assessed as increase in intensity of lipid-associated SRS bands at 30 uM incubated for 24 hrs by SRS microspectroscopic analysis; type: functional, cell-based
BXPC-3 [21] = assay: Induction of mitochodrial fission in human BXPC-3 cells assessed as reduction in mitochondrial length at 30 uM incubated for 24 hrs by MitoTracker Red CMX ROS staining based confocal microscopic analysis relative to control; type: functional; parameters: scale not given: the % may be the effect or the level left
BXPC-3 [22] = assay: Induction of apoptosis in human BXPC-3 cells assessed as increase in cleaved caspase 3 level at 10 to 30 uM incubated for 24 hrs by Western blot analysis; type: functional, cell-based; settings: dose 10-30 µM
BXPC-3 [23] = assay: Induction of apoptosis in human BXPC-3 cells assessed as accretion of lipid-like substances at 30 uM incubated for 24 hrs by SRS microspectroscopic analysis; type: functional, cell-based

IC50 (BXPC-3 [1]): 5.51 µM
IC50 (BXPC-3 [6]): 12.2 µM
IC50 (BXPC-3 [7]): 6.83 µM
Structure (SMILES): Nc1ccn([C@@H]2O[C@H](CO)[C@@H](O)C2(F)F)c(=O)n1 [GEMCITABINE]
Activity (BXPC-3 [2]): Active
Activity (BXPC-3 [3]): Active
Activity (BXPC-3 [4]): Active
Activity (BXPC-3 [5]): Active

IC50 (BXPC-3 [1]): 24 µM
IC50 (BXPC-3 [6]): 26.3 µM
IC50 (BXPC-3 [7]): 27.1 µM
logD [8]: 2.98
Structure (SMILES): COc1ccc(O)c(C(=O)/C=C/c2cccc(OC)c2OC)c1

Structure (SMILES): COc1ccc(OCC(O)CO)c(C(=O)/C=C/c2cccc(OC)c2OC)c1 (stereo not given)
Activity [9]: 50%
IC50 (BXPC-3 [1]): 7.94 µM
Activity (BXPC-3 [10]): Active
Activity (BXPC-3 [11]): Active
Activity (BXPC-3 [12]): Active
Activity (BXPC-3 [13]): Active
Activity [14]: 367.3%
Activity (BXPC-3 [15]): Active
Activity (BXPC-3 [16]): 256.18%
Activity (BXPC-3 [17]): Active
Activity (BXPC-3 [18]): 217.4%
Activity (BXPC-3 [19]): Active
IC50 (BXPC-3 [6]): 32.1 µM
Activity (BXPC-3 [20]): Active
IC50 (BXPC-3 [7]): 11.7 µM
Activity (BXPC-3 [21]): 16%
logD [8]: 2.42
Activity (BXPC-3 [22]): Active
Activity (BXPC-3 [23]): Active

Source: ChEMBL document CHEMBL5365442, “A novel chalcone derivative exerts anticancer effects by promoting apoptotic cell death of human pancreatic cancer cells” (Bioorg Med Chem, 2023)
